Data reported in patent US20060166985A1, “Pyrrolydin-2-one derivatives as inhibitors of thrombin and factor xa” (priority 2002, published 2006).

Biological target: human Thrombin (Homo sapiens, UniProt P00734)
Assay: In vitro assay for inhibition of Thrombin (chromogenic or fluorogenic assay)
Format: biochemical
Conditions: Example 2 chromogenic assay, other Examples fluorogenic assay, read-out: thrombin inhibitory Ki

In the case of `Cc1noc(C[C@@H](C(=O)N2CCOCC2)N2CC[C@H](NS(=O)(=O)CC(C)c3ccc(Cl)s3)C2=O)n1` (stereo partly drawn) [Example 60, 2-(5-chloro-2-thienyl)-N-{(3S)-1-[(1S)-1-[(3-methyl-1,2,4-oxadiazol-5-yl)methyl]-2-(4-morpholinyl)-2-oxoethyl]-2-oxo-3-pyrrolidinyl}-1-propanesulfonamide], the Ki is reported as less than 50 nM.
